Reference: ChEMBL document CHEMBL5463729, “Data for DCP probe BAY 1753011” (2023)

Experiments:
Settings in all cases: Compound concentration 10.0 uM
[1] = molecular target: Serine/threonine-protein kinase 17A (Homo sapiens) (UniProt Q9UEE5); test: Inhibition of DRAK1(h) at 10.0 µM in the Eurofins Kinase panel
[2] = molecular target: Homeodomain-interacting protein kinase 1 (Homo sapiens) (UniProt Q86Z02); test: Inhibition of HIPK1(h) at 10.0 µM in the Eurofins Kinase panel
[3] = molecular target: Tyrosine-protein kinase FRK (Homo sapiens) (UniProt P42685); test: Inhibition of PTK5(h) at 10.0 µM in the Eurofins Kinase panel
[4] = molecular target: Platelet-derived growth factor receptor beta (Homo sapiens) (UniProt P09619); test: Inhibition of PDGFRbeta(h) at 10.0 µM in the Eurofins Kinase panel
[5] = molecular target: Ribosomal protein S6 kinase alpha-5 (Homo sapiens) (UniProt O75582); test: Inhibition of MSK1(h) at 10.0 µM in the Eurofins Kinase panel
[6] = molecular target: Serine/threonine-protein kinase MARK2 (Homo sapiens) (UniProt Q7KZI7); test: Inhibition of PAR-1Balpha(h) at 10.0 µM in the Eurofins Kinase panel
[7] = molecular target: Calcium/calmodulin-dependent protein kinase kinase 2 (Homo sapiens) (UniProt Q96RR4); test: Inhibition of CaMKK2(h) at 10.0 µM in the Eurofins Kinase panel
[8] = molecular target: Ephrin type-B receptor 2 (Homo sapiens) (UniProt P29323); test: Inhibition of EphB2(h) at 10.0 µM in the Eurofins Kinase panel
Chain of Ephrin type-B receptor 2 (Homo sapiens) (P29323 whole entry): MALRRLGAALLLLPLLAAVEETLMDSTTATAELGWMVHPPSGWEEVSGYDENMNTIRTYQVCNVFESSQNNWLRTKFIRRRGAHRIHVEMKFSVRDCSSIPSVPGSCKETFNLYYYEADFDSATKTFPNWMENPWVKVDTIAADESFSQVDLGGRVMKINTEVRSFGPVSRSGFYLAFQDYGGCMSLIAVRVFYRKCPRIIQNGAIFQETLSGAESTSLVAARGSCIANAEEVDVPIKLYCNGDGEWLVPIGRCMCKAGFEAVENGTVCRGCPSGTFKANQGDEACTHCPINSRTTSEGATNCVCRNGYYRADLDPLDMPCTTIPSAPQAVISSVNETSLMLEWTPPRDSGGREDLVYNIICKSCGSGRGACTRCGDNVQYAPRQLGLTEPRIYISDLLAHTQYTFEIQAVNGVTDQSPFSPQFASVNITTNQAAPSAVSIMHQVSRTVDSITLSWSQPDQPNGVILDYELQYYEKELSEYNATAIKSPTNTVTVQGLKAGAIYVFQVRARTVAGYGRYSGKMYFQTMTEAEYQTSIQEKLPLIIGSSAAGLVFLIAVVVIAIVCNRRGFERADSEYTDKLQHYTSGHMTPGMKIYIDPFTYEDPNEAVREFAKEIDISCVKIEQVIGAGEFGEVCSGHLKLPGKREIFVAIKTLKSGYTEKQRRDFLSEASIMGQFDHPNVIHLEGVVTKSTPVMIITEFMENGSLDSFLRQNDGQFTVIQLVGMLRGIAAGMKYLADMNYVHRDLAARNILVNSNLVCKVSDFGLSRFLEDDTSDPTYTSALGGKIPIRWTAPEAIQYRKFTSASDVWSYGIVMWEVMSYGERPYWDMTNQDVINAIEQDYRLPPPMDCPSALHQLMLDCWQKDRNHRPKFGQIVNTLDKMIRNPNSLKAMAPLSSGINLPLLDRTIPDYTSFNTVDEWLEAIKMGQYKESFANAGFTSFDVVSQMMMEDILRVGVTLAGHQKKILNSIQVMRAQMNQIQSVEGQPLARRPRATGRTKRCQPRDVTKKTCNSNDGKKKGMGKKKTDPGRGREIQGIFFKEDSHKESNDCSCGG

[9] = molecular target: Serine/threonine-protein kinase 38 (Homo sapiens) (UniProt Q15208); test: Inhibition of NDR1(h) at 10.0 µM in the Eurofins Kinase panel
[10] = molecular target: Insulin-like growth factor 1 receptor (Homo sapiens) (UniProt P08069); test: Inhibition of IGF-1R(h), activated at 10.0 µM in the Eurofins Kinase panel
[11] = molecular target: Serine/threonine-protein kinase Chk1 (Homo sapiens) (UniProt O14757); test: Inhibition of CHK1(h) at 10.0 µM in the Eurofins Kinase panel
Chain of Serine/threonine-protein kinase Chk1 (Homo sapiens) (O14757 whole entry, the tested form may be a part): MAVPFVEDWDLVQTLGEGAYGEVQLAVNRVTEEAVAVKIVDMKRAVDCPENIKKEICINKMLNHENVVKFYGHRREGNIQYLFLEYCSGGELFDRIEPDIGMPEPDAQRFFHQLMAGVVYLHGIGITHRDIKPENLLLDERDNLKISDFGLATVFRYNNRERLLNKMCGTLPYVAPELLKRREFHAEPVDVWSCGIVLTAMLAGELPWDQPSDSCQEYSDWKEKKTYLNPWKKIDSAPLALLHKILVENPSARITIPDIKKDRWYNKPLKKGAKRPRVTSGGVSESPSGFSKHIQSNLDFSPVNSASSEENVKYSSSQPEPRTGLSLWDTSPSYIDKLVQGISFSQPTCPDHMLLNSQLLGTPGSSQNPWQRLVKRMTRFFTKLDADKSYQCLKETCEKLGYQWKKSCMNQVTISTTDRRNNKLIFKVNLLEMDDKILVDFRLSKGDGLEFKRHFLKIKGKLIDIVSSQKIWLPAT

[12] = molecular target: LIM domain kinase 1 (Homo sapiens) (UniProt P53667); test: Inhibition of LIMK1(h) at 10.0 µM in the Eurofins Kinase panel
[13] = molecular target: T1, Sodium-dependent noradrenaline transporter (Homo sapiens, UniProt P23975)
T1 sequence (P23975 whole entry): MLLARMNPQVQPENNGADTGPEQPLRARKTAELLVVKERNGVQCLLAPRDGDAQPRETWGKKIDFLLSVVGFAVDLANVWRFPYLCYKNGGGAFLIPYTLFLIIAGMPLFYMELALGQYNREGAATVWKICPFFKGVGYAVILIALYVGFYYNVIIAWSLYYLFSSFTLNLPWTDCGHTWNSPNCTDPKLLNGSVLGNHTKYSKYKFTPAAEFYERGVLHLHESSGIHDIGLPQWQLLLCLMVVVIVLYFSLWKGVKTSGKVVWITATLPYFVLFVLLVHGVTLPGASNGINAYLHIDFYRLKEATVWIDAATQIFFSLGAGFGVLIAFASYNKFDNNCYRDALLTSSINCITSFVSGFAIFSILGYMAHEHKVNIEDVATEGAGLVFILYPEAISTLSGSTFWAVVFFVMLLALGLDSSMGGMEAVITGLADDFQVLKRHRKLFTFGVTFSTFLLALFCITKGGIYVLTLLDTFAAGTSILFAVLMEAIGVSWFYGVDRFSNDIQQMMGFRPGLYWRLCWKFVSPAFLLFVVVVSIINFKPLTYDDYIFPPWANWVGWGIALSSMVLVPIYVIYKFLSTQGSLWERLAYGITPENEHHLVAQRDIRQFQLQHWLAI

[14] = molecular target: Mu-type opioid receptor (Homo sapiens) (UniProt P35372)
Chain of Mu-type opioid receptor (Homo sapiens) (P35372 whole entry): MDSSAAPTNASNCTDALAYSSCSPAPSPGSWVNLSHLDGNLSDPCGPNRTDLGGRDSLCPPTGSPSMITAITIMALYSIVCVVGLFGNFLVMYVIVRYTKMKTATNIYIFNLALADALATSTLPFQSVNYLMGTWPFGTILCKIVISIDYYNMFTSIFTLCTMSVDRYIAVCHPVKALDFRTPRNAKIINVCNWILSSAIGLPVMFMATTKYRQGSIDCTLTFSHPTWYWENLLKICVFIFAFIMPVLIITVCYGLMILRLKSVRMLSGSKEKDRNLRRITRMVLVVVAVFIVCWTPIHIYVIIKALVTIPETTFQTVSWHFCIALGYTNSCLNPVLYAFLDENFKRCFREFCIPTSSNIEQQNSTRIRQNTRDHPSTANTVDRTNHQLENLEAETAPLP

[15] = molecular target: cAMP-dependent protein kinase (PKA) (Homo sapiens) (UniProt P22694+P17612+P22612); test: Inhibition of PKA(h) at 10.0 µM in the Eurofins Kinase panel; type: protein assay
[16] = molecular target: Serine/threonine-protein kinase TAO1 (Homo sapiens) (UniProt Q7L7X3); test: Inhibition of TAO1(h) at 10.0 µM in the Eurofins Kinase panel
[17] = molecular target: Phosphatidylinositol 3-kinase C2 domain-containing subunit gamma (Homo sapiens) (UniProt O75747); test: Inhibition of PI3KC2g(h) at 10.0 µM in the Eurofins Kinase panel
[18] = molecular target: Tyrosine-protein kinase Yes (Homo sapiens) (UniProt P07947); test: Inhibition of Yes(h) at 10.0 µM in the Eurofins Kinase panel
[19] = molecular target: Adenosine receptor A1 (Homo sapiens) (UniProt P30542)
Chain of Adenosine receptor A1 (Homo sapiens) (P30542 whole entry): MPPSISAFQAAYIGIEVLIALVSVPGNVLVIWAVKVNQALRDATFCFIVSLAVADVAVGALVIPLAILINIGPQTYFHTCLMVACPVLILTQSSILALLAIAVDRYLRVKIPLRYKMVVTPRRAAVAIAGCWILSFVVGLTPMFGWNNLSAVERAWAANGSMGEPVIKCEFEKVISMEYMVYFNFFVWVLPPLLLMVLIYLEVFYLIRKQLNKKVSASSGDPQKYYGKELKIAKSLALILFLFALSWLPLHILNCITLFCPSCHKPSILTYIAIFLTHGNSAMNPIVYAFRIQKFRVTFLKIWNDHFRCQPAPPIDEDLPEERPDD

[20] = molecular target: Adenosine receptor A3 (Homo sapiens) (UniProt P0DMS8)
[21] = molecular target: Serine/threonine-protein kinase 16 (Homo sapiens) (UniProt O75716); test: Inhibition of STK16(h) at 10.0 µM in the Eurofins Kinase panel
Chain of Serine/threonine-protein kinase 16 (Homo sapiens) (O75716 whole entry): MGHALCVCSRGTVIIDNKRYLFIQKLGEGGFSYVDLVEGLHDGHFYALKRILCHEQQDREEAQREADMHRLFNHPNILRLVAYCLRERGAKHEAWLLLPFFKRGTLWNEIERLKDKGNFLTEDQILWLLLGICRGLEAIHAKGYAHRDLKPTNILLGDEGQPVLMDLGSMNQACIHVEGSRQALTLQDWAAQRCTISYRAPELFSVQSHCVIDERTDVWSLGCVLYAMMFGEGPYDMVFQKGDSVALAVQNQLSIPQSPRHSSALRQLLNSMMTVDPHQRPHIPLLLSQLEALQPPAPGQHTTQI

[22] = molecular target: Proto-oncogene tyrosine-protein kinase ROS (Homo sapiens) (UniProt P08922); test: Inhibition of Ros(h) at 10.0 µM in the Eurofins Kinase panel
[23] = molecular target: G protein-coupled receptor kinase 3 (Homo sapiens) (UniProt P35626); test: Inhibition of GRK3(h) at 10.0 µM in the Eurofins Kinase panel
[24] = molecular target: Eukaryotic elongation factor 2 kinase (Homo sapiens) (UniProt O00418); test: Inhibition of eEF-2K(h) at 10.0 µM in the Eurofins Kinase panel
[25] = molecular target: Mitogen-activated protein kinase 13 (Homo sapiens) (UniProt O15264); test: Inhibition of SAPK4(h) at 10.0 µM in the Eurofins Kinase panel
[26] = molecular target: Dual specificity mitogen-activated protein kinase kinase 3 (Homo sapiens) (UniProt P46734); test: Inhibition of MKK3(h) at 10.0 µM in the Eurofins Kinase panel
[27] = molecular target: 5-hydroxytryptamine receptor 7 (Homo sapiens) (UniProt P34969)
Chain of 5-hydroxytryptamine receptor 7 (Homo sapiens) (P34969 whole entry): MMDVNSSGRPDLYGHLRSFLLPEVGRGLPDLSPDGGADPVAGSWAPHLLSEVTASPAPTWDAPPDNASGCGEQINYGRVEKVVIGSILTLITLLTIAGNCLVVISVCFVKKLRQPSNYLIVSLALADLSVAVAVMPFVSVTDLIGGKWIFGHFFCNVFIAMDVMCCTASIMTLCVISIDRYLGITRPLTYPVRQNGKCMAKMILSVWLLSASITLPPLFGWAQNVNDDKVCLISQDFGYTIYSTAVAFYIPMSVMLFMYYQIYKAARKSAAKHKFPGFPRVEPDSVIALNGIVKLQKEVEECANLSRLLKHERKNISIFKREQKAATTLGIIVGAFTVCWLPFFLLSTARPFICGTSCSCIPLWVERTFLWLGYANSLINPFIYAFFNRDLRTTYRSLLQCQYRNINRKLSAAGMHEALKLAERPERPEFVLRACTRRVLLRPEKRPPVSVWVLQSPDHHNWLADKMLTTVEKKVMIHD

[28] = molecular target: Insulin receptor-related protein (Homo sapiens) (UniProt P14616); test: Inhibition of IRR(h) at 10.0 µM in the Eurofins Kinase panel
Chain of Insulin receptor-related protein (Homo sapiens) (P14616 27-742 limits assumed): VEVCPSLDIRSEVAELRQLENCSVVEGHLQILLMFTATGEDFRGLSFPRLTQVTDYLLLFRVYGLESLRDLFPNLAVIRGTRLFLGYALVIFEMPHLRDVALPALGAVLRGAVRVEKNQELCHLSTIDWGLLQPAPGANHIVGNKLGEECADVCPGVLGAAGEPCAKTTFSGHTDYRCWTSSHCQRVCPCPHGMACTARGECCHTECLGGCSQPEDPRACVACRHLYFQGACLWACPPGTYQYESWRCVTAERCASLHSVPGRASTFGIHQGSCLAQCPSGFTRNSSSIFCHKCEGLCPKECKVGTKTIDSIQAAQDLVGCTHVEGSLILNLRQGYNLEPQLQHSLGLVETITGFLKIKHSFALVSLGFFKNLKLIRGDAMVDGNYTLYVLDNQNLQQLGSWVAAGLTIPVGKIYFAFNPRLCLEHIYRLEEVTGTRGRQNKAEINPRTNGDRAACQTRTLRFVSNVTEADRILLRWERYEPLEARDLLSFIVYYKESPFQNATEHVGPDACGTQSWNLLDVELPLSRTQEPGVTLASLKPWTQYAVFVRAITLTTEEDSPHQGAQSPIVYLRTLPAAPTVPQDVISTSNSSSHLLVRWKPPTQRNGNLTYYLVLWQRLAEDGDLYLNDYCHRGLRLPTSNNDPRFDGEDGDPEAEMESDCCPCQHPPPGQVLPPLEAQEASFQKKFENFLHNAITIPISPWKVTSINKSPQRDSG
Chain of Insulin receptor-related protein (Homo sapiens) (P14616 747-1297 limits assumed): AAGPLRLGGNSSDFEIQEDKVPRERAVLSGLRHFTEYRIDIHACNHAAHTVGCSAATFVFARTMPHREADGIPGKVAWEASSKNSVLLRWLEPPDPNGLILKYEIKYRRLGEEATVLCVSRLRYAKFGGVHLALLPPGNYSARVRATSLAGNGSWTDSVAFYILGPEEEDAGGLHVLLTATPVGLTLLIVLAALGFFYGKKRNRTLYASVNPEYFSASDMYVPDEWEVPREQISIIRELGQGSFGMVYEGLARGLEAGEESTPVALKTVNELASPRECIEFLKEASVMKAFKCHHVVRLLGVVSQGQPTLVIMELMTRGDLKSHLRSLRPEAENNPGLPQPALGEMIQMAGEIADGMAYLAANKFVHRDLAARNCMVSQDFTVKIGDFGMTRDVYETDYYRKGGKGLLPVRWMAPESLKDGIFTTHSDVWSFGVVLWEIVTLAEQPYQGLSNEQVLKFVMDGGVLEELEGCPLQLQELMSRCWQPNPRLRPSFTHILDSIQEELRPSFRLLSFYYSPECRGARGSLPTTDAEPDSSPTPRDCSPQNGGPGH

[29] = molecular target: Serine/threonine-protein kinase PAK 1 (Homo sapiens) (UniProt Q13153); test: Inhibition of PAK1(h) at 10.0 µM in the Eurofins Kinase panel
[30] = molecular target: T1, Sodium-dependent noradrenaline transporter; remark: listed apart in the source
[31] = molecular target: CDK4/Cyclin D3 (Homo sapiens) (UniProt P11802+P30281); test: Inhibition of CDK4/cyclinD3(h) at 10.0 µM in the Eurofins Kinase panel; type: protein-complex assay
[32] = molecular target: 3-phosphoinositide-dependent protein kinase 1 (Homo sapiens) (UniProt O15530); test: Inhibition of PDK1(h) at 10.0 µM in the Eurofins Kinase panel
[33] = molecular target: T2, Alpha-2B adrenergic receptor (Homo sapiens) (UniProt P18089)
T2 sequence (whole entry): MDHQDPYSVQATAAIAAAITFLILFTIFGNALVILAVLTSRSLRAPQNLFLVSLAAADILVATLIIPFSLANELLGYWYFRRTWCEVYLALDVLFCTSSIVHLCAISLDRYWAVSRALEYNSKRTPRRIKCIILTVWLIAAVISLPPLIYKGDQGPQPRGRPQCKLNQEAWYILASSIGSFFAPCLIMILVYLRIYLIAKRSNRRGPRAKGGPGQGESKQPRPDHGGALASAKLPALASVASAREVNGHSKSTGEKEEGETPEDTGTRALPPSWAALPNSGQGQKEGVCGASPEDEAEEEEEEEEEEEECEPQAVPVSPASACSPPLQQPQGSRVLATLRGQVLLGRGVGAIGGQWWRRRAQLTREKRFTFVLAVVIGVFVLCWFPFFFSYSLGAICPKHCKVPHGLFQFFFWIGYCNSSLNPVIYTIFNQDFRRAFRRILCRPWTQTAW

[34] = molecular target: Serine/threonine-protein kinase PAK 3 (Homo sapiens) (UniProt O75914); test: Inhibition of PAK3(h) at 10.0 µM in the Eurofins Kinase panel

Row | Compound | inhibition [1] [%] | inhibition [2] [%] | inhibition [3] [%] | inhibition [4] [%] | inhibition [5] [%] | inhibition [6] [%] | inhibition [7] [%] | inhibition [8] [%] | inhibition [9] [%] | inhibition [10] [%] | inhibition [11] [%] | inhibition [12] [%] | inhibition [13] [%] | inhibition [14] [%] | inhibition [15] [%] | inhibition [16] [%] | inhibition [17] [%] | inhibition [18] [%] | inhibition [19] [%] | inhibition [20] [%] | further results
1 | O=c1n(Cc2cncn2-c2cccc(Cl)c2)nc(-c2ccc(Cl)cc2)n1C[C@H](O)C(F)(F)F | -1.37 | 1.31 | 0.3 | -9.1 | -0.53 | 5.49 | -6.67 | -4.8 | -2.95 | -4.33 | 1.73 | 0.42 | 8 | 6.13 | 2.56 | 0.29 | 6.58 | -2.72 | 8 | 7 | inhibition [21]: -0.13%; inhibition [22]: 3.23%; inhibition [23]: -3.13%; inhibition [24]: -4.87%; inhibition [25]: -3.8%; inhibition [26]: -0.4%; inhibition [27]: -2%; inhibition [28]: -9.92%; inhibition [29]: 5.16%; inhibition [30]: 11%; inhibition [31]: 7.51%; inhibition [32]: -8.39%; inhibition [33]: 0.1%; inhibition [34]: 7.29%
2 | C[C@H](O)c1nc(Cn2nc(-c3ccc(Cl)cc3)n(C[C@H](O)C(F)(F)F)c2=O)nn1-c1cccc(Cl)c1 [PECAVAPTAN] | -9.63 | -2.92 | 0.28 | -5.19 | -5.91 | 7.5 | -6.9 | 6.86 | -4.67 | -6.92 | 2.42 | 0.57 | 62 | 14.4 | -3.46 | 2.68 | 6.41 | -6.93 | 26 | 16 | inhibition [21]: 4.07%; inhibition [22]: -1.01%; inhibition [23]: 2.8%; inhibition [24]: -9.42%; inhibition [25]: -3.83%; inhibition [26]: -0.58%; inhibition [27]: 17.6%; inhibition [28]: 0.47%; inhibition [29]: 5.15%; inhibition [30]: 71.2%; inhibition [31]: 5.58%; inhibition [32]: -3.55%; inhibition [33]: 16.1%; inhibition [34]: 1.73%
